Data: US6930075B1, “Fatty acid-based herbicidal composition” (priority 1990, dated 2005)

Assays:
Assay in all cases: Greenhouse spray, phytotoxicity and mortality over time;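 as to Phyto (Phytotoxicity, 0–10 rating scale): 0 means no damage and 10 means plant death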;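 as to Phyto (phytotoxicity ratings, 0–10 rating scale): 0 means no damage and 10 means plant death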;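 as to Phyto = Phytotoxicity (0–10 rating scale): 0 means no damage and 10 means plant death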
Assay type in all cases: in vivo
Oats = tested on: Oats;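 also: 0 means no damage and 10 means plant death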
Description: (§1) Herbicidal treatments were applied using a spray chamber fitted with a TeeJet 8006E flat fan nozzle (available from Spraying Systems Co., Wheaton, Ill.), calibrated to spray at a volume of 60 gpa at 40 psi. Treatment solutions were freshly prepared for each experiment. […] M. et al, J. Wiley and Sons, 1975, pp. 119–120, 218.
(§2) In a greenhouse facility four plant species were grown in 5.5 cm square pots using a potting soil mix comprising peat, vermiculite, sand and 4-10-10 fertilizer. Water soluble 20-20-20 fertilizer was used as a supplement for the plants as required. The plant species used were corn, oats, radish and morningglory. The plants were selected for use based on uniformity and quality. The corn plants used were in the 3 to 4 leaf stage and two plants were present in each pot. The oats used were in the 2 to 4 leaf stage and four plants were present per pot. The radish plants used were in the 3 to 5 leaf stage and one plant was used per pot. The morningglory were in the 2 to 4 leaf stage with one plant per pot. After spraying with a herbicidal formulation, the pots were arranged in a randomized complete block design in sub-irrigated watering trays, and included a water-treated control treatment. Four replicates (pots) were used for each treatment.
(§3) Herbicidal treatments were applied and recorded as in Example 1.

Morningglory = conditions: for Mortality: plants died of 4
Description: as §1, §2, §3

Corn = conditions: for Mortality: plants died of 8
Description: as §1, §2, §3

Radish Plants = conditions: for Mortality: plants died of 4
Description: as §1, §2, §3

[1] = 9 Days after Treatment, listed as 0.1% C9 Na^+ Salt
[2] = 9 Days after Treatment, listed as 0.5% C9 Na^+ Salt
[3] = 9 Days after Treatment, listed as 1.0% C9 Na^+ Salt
[4] = 11 Days after Treatment, listed as 0.1% C9 Na^+ Salt
[5] = 11 Days after Treatment, listed as 0.5% C9 Na^+ Salt
[6] = 11 Days after Treatment, listed as 1.0% C9 Na^+ Salt
[7] = 16 Days after Treatment, listed as 0.1% C9 Na^+ Salt
[8] = 16 Days after Treatment, listed as 0.5% C9 Na^+ Salt
[9] = 16 Days after Treatment, listed as 1.0% C9 Na^+ Salt
[10] = 18 Days after Treatment, listed as 0.1% C9 Na^+ Salt
[11] = 18 Days after Treatment, listed as 0.5% C9 Na^+ Salt
[12] = 18 Days after Treatment, listed as 1.0% C9 Na^+ Salt
[13] = 21 Days after Treatment, listed as 0.1% C9 Na^+ Salt
[14] = 21 Days after Treatment, listed as 0.5% C9 Na^+ Salt
[15] = 21 Days after Treatment, listed as 1.0% C9 Na^+ Salt
[16] = 23 Days after Treatment, listed as 0.1% C9 Na^+ Salt
[17] = 23 Days after Treatment, listed as 0.5% C9 Na^+ Salt
[18] = 23 Days after Treatment, listed as 1.0% C9 Na^+ Salt

CCCCCCCCC(=O)[O-].[Na+] [Sodium pelargonate]
0.25: Phyto (Phytotoxicity, 0–10 rating scale) (Corn; [7]) | Phyto (Phytotoxicity, 0–10 rating scale) (Corn; [9]) | Phyto (Phytotoxicity, 0–10 rating scale) (Corn; [12])
0.5: Phyto (Phytotoxicity, 0–10 rating scale) (Corn; [2]) | Phyto (Phytotoxicity, 0–10 rating scale) (Corn; [5]) | Phyto (Phytotoxicity, 0–10 rating scale) (Corn; [15]) | Phyto = Phytotoxicity (0–10 rating scale) (Radish Plants; 7 Days after Treatment, listed as 1.0% C9 Na^+ Salt) | Phyto = Phytotoxicity (0–10 rating scale) (Radish Plants; [3]) | Phyto = Phytotoxicity (0–10 rating scale) (Radish Plants; [6]) | Phyto = Phytotoxicity (0–10 rating scale) (Radish Plants; [9]) | Phyto = Phytotoxicity (0–10 rating scale) (Radish Plants; [12]) | Phyto = Phytotoxicity (0–10 rating scale) (Radish Plants; [15]) | Phyto = Phytotoxicity (0–10 rating scale) (Radish Plants; [18]) | Phyto = Phytotoxicity (0–10 rating scale) (Radish Plants; 25 Days after Treatment, listed as 1.0% C9 Na^+ Salt) | Phyto = Phytotoxicity (0–10 rating scale) (Radish Plants; 28 Days after Treatment, listed as 1.0% C9 Na^+ Salt) | Phyto = Phytotoxicity (0–10 rating scale) (Radish Plants; 30 Days after Treatment, listed as 1.0% C9 Na^+ Salt) | Phyto = Phytotoxicity (0–10 rating scale) (Radish Plants; 32 Days after Treatment, listed as 1.0% C9 Na^+ Salt) | Phyto = Phytotoxicity (0–10 rating scale) (Radish Plants; 35 Days after Treatment, listed as 1.0% C9 Na^+ Salt) | Phyto = Phytotoxicity (0–10 rating scale) (Radish Plants; 42 Days after Treatment, listed as 1.0% C9 Na^+ Salt) | Phyto = Phytotoxicity (0–10 rating scale) (Radish Plants; 46 Days after Treatment, listed as 1.0% C9 Na^+ Salt) | Phyto = Phytotoxicity (0–10 rating scale) (Radish Plants; 57 Days after Treatment, listed as 1.0% C9 Na^+ Salt)
0.75: Phyto (Phytotoxicity, 0–10 rating scale) (Corn; [18])
1.0: Phyto (Phytotoxicity, 0–10 rating scale) (Corn; [8]) | Phyto (Phytotoxicity, 0–10 rating scale) (Corn; [10]) | Phyto (Phytotoxicity, 0–10 rating scale) (Corn; [11]) | Phyto (Phytotoxicity, 0–10 rating scale) (Corn; [13]) | Phyto (Phytotoxicity, 0–10 rating scale) (Corn; [14]) | Phyto (Phytotoxicity, 0–10 rating scale) (Corn; [16]) | Phyto (Phytotoxicity, 0–10 rating scale) (Corn; [17]) | Phyto (Phytotoxicity, 0–10 rating scale) (Corn; 25 Days after Treatment)
0: Phyto (phytotoxicity ratings, 0–10 rating scale) (Oats; 2 Days after Treatment) | Phyto (phytotoxicity ratings, 0–10 rating scale) (Oats; 4 Days after Treatment) | Phyto (phytotoxicity ratings, 0–10 rating scale) (Oats; 7 Days after Treatment) | Phyto (phytotoxicity ratings, 0–10 rating scale) (Oats; 9 Days after Treatment) | Phyto (phytotoxicity ratings, 0–10 rating scale) (Oats; 11 Days after Treatment) | Phyto (phytotoxicity ratings, 0–10 rating scale) (Oats; 16 Days after Treatment) | Phyto (phytotoxicity ratings, 0–10 rating scale) (Oats; 18 Days after Treatment) | Phyto (phytotoxicity ratings, 0–10 rating scale) (Oats; 21 Days after Treatment) | Phyto (phytotoxicity ratings, 0–10 rating scale) (Oats; 23 Days after Treatment) | Phyto (phytotoxicity ratings, 0–10 rating scale) (Oats; 25 Days after Treatment) | Phyto (phytotoxicity ratings, 0–10 rating scale) (Oats; 28 Days after Treatment) | Phyto (phytotoxicity ratings, 0–10 rating scale) (Oats; 30 Days after Treatment) | Phyto (phytotoxicity ratings, 0–10 rating scale) (Oats; 32 Days after Treatment) | Phyto (phytotoxicity ratings, 0–10 rating scale) (Oats; 35 Days after Treatment) | Phyto (Phytotoxicity, 0–10 rating scale) (Morningglory; 2 Days after Treatment) | Mortality (Morningglory; 2 Days after Treatment) | Phyto (Phytotoxicity, 0–10 rating scale) (Morningglory; 4 Days after Treatment) | Mortality (Morningglory; 4 Days after Treatment) | Phyto (Phytotoxicity, 0–10 rating scale) (Morningglory; 7 Days after Treatment) | Mortality (Morningglory; 7 Days after Treatment) | Phyto (Phytotoxicity, 0–10 rating scale) (Morningglory; 9 Days after Treatment) | Mortality (Morningglory; 9 Days after Treatment) | Phyto (Phytotoxicity, 0–10 rating scale) (Morningglory; 11 Days after Treatment) | Mortality (Morningglory; 11 Days after Treatment) | Phyto (Phytotoxicity, 0–10 rating scale) (Morningglory; 16 Days after Treatment) | Mortality (Morningglory; 16 Days after Treatment) | Phyto (Phytotoxicity, 0–10 rating scale) (Morningglory; 18 Days after Treatment) | Mortality (Morningglory; 18 Days after Treatment) | Phyto (Phytotoxicity, 0–10 rating scale) (Morningglory; 21 Days after Treatment) | Mortality (Morningglory; 21 Days after Treatment) | Phyto (Phytotoxicity, 0–10 rating scale) (Morningglory; 23 Days after Treatment) | Mortality (Morningglory; 23 Days after Treatment) | Phyto (Phytotoxicity, 0–10 rating scale) (Morningglory; 25 Days after Treatment) | Mortality (Morningglory; 25 Days after Treatment) | Phyto (Phytotoxicity, 0–10 rating scale) (Morningglory; 28 Days after Treatment) | Mortality (Morningglory; 28 Days after Treatment) | Phyto (Phytotoxicity, 0–10 rating scale) (Morningglory; 30 Days after Treatment) | Mortality (Morningglory; 30 Days after Treatment) | Phyto (Phytotoxicity, 0–10 rating scale) (Morningglory; 32 Days after Treatment) | Mortality (Morningglory; 32 Days after Treatment) | Phyto (Phytotoxicity, 0–10 rating scale) (Morningglory; 35 Days after Treatment) | Mortality (Morningglory; 35 Days after Treatment) | Phyto (Phytotoxicity, 0–10 rating scale) (Corn; 2 Days after Treatment) | Mortality (Corn; 2 Days after Treatment) | Phyto (Phytotoxicity, 0–10 rating scale) (Corn; 4 Days after Treatment) | Mortality (Corn; 4 Days after Treatment) | Phyto (Phytotoxicity, 0–10 rating scale) (Corn; 7 Days after Treatment) | Mortality (Corn; 7 Days after Treatment) | Phyto (Phytotoxicity, 0–10 rating scale) (Corn; [1]) | Phyto (Phytotoxicity, 0–10 rating scale) (Corn; [3]) | Mortality (Corn; 9 Days after Treatment) | Phyto (Phytotoxicity, 0–10 rating scale) (Corn; [4]) | Phyto (Phytotoxicity, 0–10 rating scale) (Corn; [6]) | Mortality (Corn; 11 Days after Treatment) | Mortality (Corn; 16 Days after Treatment) | Mortality (Corn; 18 Days after Treatment) | Mortality (Corn; 21 Days after Treatment) | Mortality (Corn; 23 Days after Treatment) | Mortality (Corn; 25 Days after Treatment) | Phyto (Phytotoxicity, 0–10 rating scale) (Corn; 28 Days after Treatment) | Mortality (Corn; 28 Days after Treatment) | Phyto (Phytotoxicity, 0–10 rating scale) (Corn; 30 Days after Treatment) | Mortality (Corn; 30 Days after Treatment) | Phyto (Phytotoxicity, 0–10 rating scale) (Corn; 32 Days after Treatment) | Mortality (Corn; 32 Days after Treatment) | Phyto (Phytotoxicity, 0–10 rating scale) (Corn; 35 Days after Treatment) | Mortality (Corn; 35 Days after Treatment) | Phyto (Phytotoxicity, 0–10 rating scale) (Corn; 42 Days after Treatment) | Mortality (Corn; 42 Days after Treatment) | Phyto (Phytotoxicity, 0–10 rating scale) (Corn; 46 Days after Treatment) | Mortality (Corn; 46 Days after Treatment) | Phyto (Phytotoxicity, 0–10 rating scale) (Corn; 57 Days after Treatment) | Mortality (Corn; 57 Days after Treatment) | Phyto = Phytotoxicity (0–10 rating scale) (Radish Plants; 2 Days after Treatment) | Mortality (Radish Plants; 2 Days after Treatment) | Phyto = Phytotoxicity (0–10 rating scale) (Radish Plants; 4 Days after Treatment) | Mortality (Radish Plants; 4 Days after Treatment) | Phyto = Phytotoxicity (0–10 rating scale) (Radish Plants; 7 Days after Treatment, listed as 0.1% C9 Na^+ Salt) | Phyto = Phytotoxicity (0–10 rating scale) (Radish Plants; 7 Days after Treatment, listed as 0.5% C9 Na^+ Salt) | Mortality (Radish Plants; 7 Days after Treatment) | Phyto = Phytotoxicity (0–10 rating scale) (Radish Plants; [1]) | Phyto = Phytotoxicity (0–10 rating scale) (Radish Plants; [2]) | Mortality (Radish Plants; 9 Days after Treatment) | Phyto = Phytotoxicity (0–10 rating scale) (Radish Plants; [4]) | Phyto = Phytotoxicity (0–10 rating scale) (Radish Plants; [5]) | Mortality (Radish Plants; 11 Days after Treatment) | Phyto = Phytotoxicity (0–10 rating scale) (Radish Plants; [7]) | Phyto = Phytotoxicity (0–10 rating scale) (Radish Plants; [8]) | Mortality (Radish Plants; 16 Days after Treatment) | Phyto = Phytotoxicity (0–10 rating scale) (Radish Plants; [10]) | Phyto = Phytotoxicity (0–10 rating scale) (Radish Plants; [11]) | Mortality (Radish Plants; 18 Days after Treatment) | Phyto = Phytotoxicity (0–10 rating scale) (Radish Plants; [13]) | Phyto = Phytotoxicity (0–10 rating scale) (Radish Plants; [14]) | Mortality (Radish Plants; 21 Days after Treatment) | Phyto = Phytotoxicity (0–10 rating scale) (Radish Plants; [16]) | Phyto = Phytotoxicity (0–10 rating scale) (Radish Plants; [17]) | Mortality (Radish Plants; 23 Days after Treatment) | Phyto = Phytotoxicity (0–10 rating scale) (Radish Plants; 25 Days after Treatment, listed as 0.1% C9 Na^+ Salt) | Phyto = Phytotoxicity (0–10 rating scale) (Radish Plants; 25 Days after Treatment, listed as 0.5% C9 Na^+ Salt) | Mortality (Radish Plants; 25 Days after Treatment) | Phyto = Phytotoxicity (0–10 rating scale) (Radish Plants; 28 Days after Treatment, listed as 0.1% C9 Na^+ Salt) | Phyto = Phytotoxicity (0–10 rating scale) (Radish Plants; 28 Days after Treatment, listed as 0.5% C9 Na^+ Salt) | Mortality (Radish Plants; 28 Days after Treatment) | Phyto = Phytotoxicity (0–10 rating scale) (Radish Plants; 30 Days after Treatment, listed as 0.1% C9 Na^+ Salt) | Phyto = Phytotoxicity (0–10 rating scale) (Radish Plants; 30 Days after Treatment, listed as 0.5% C9 Na^+ Salt) | Mortality (Radish Plants; 30 Days after Treatment) | Phyto = Phytotoxicity (0–10 rating scale) (Radish Plants; 32 Days after Treatment, listed as 0.1% C9 Na^+ Salt) | Phyto = Phytotoxicity (0–10 rating scale) (Radish Plants; 32 Days after Treatment, listed as 0.5% C9 Na^+ Salt) | Mortality (Radish Plants; 32 Days after Treatment) | Phyto = Phytotoxicity (0–10 rating scale) (Radish Plants; 35 Days after Treatment, listed as 0.1% C9 Na^+ Salt) | Phyto = Phytotoxicity (0–10 rating scale) (Radish Plants; 35 Days after Treatment, listed as 0.5% C9 Na^+ Salt) | Mortality (Radish Plants; 35 Days after Treatment) | Phyto = Phytotoxicity (0–10 rating scale) (Radish Plants; 42 Days after Treatment, listed as 0.1% C9 Na^+ Salt) | Phyto = Phytotoxicity (0–10 rating scale) (Radish Plants; 42 Days after Treatment, listed as 0.5% C9 Na^+ Salt) | Mortality (Radish Plants; 42 Days after Treatment) | Phyto = Phytotoxicity (0–10 rating scale) (Radish Plants; 46 Days after Treatment, listed as 0.1% C9 Na^+ Salt) | Phyto = Phytotoxicity (0–10 rating scale) (Radish Plants; 46 Days after Treatment, listed as 0.5% C9 Na^+ Salt) | Mortality (Radish Plants; 46 Days after Treatment) | Phyto = Phytotoxicity (0–10 rating scale) (Radish Plants; 57 Days after Treatment, listed as 0.1% C9 Na^+ Salt) | Phyto = Phytotoxicity (0–10 rating scale) (Radish Plants; 57 Days after Treatment, listed as 0.5% C9 Na^+ Salt) | Mortality (Radish Plants; 57 Days after Treatment)
